One block for each compound: values may come before it.
How the values were obtained:
[1] = target: T1, Nicotinamide phosphoribosyltransferase (Homo sapiens, UniProt P43490); assay: Inhibition of NAMPT (unknown origin)
MV4-11 = assay: cells; type: functional, cell-based; settings: Homo sapiens; for GI50: MV4-11, time 48 hrs; for IC50: MV4-11, 48 h
NB-4 = assay: Antiproliferative activity against p53-null human NB4 cells assessed as induction of cell death incubated for 48 hrs by resazurin dye based fluorescence analysis; type: functional; settings: read-out: LD50 (the source's name)
HL-60 [2] = assay: Antiproliferative activity against p53-null human HL-60 cells assessed as induction of cell death incubated for 48 hrs in presence of N-(4-(1-benzoylpiperidin-4-yl)butyl)-3-(pyridin-3-yl)acrylamide by resazurin dye based fluorescence analysis; type: functional; settings: read-out: LD50 (the source's name)
[3] = Antiproliferative activity against p53-null human PL-21 cells assessed as induction of cell death incubated for 48 hrs by resazurin dye based fluorescence analysis; type: functional; settings: read-out: LD50 (the source's name)
[4] = Antiproliferative activity against p53-null human MONO-MAC-1 cells assessed as induction of cell death incubated for 48 hrs by resazurin dye based fluorescence analysis; type: functional; settings: read-out: LD50 (the source's name)
HL-60 [5] = assay: Antiproliferative activity against p53-null human HL-60 cells assessed as induction of cell death incubated for 48 hrs in presence of methyl-4-((1H-pyrrolo[3,2-c]pyridine-2-carboxamido)methyl)benzoate by resazurin dye based fluorescence analysis; type: functional; settings: read-out: LD50 (the source's name)
HL-60 [6] = assay: Antiproliferative activity against p53-null human HL-60 cells assessed as inhibition of cell growth incubated for 48 hrs by resazurin dye based fluorescence analysis; type: functional
Kasumi 1 = assay: Antiproliferative activity against human Kasumi 1 cells harboring wild type p53 assessed as induction of cell death incubated for 48 hrs by resazurin dye based fluorescence analysis; type: functional; settings: read-out: LD50 (the source's name)
[7] = target: Histone deacetylase 3/Nuclear receptor corepressor 2 (HDAC3/NCoR2) (Homo sapiens, UniProt O15379); assay: (§1) Inhibition of C-terminal His-tagged human HDAC3 (1 to 428 residues)/N-terminal GST tagged human NCOR2 (395 to 489 residues) expressed in baculovirus-infected Sf9 cells using Boc-Lys-(acetyl)-AMC as substrate preincubated with enzyme for 1 hr followed by substrate addition and measured after 2 hrs by fluorescence analysis
[8] = target: T1, Nicotinamide phosphoribosyltransferase; assay: Inhibition of N-terminal GST-tagged human recombinant NAMPT (2 to 491 residues) expressed in Escherichia coli expression system incubated for 30 mins by fluorescence based analysis
Histone deacetylase 2 = Histone deacetylase 2 (Homo sapiens, UniProt Q92769); assay: biochemical; type: cell-based, Sf9
Histone deacetylase 1 = Histone deacetylase 1 (Homo sapiens, UniProt Q13547); assay: as §1, with “6XHis-tagged/FLAG-tagged full length” for “His-tagged”, “recombinant HDAC1” for “HDAC3”, “482” for “428 residues)/N-terminal GST tagged human NCOR2 (395 to 489”
Histone deacetylase 1, sequence (Q13547 whole entry): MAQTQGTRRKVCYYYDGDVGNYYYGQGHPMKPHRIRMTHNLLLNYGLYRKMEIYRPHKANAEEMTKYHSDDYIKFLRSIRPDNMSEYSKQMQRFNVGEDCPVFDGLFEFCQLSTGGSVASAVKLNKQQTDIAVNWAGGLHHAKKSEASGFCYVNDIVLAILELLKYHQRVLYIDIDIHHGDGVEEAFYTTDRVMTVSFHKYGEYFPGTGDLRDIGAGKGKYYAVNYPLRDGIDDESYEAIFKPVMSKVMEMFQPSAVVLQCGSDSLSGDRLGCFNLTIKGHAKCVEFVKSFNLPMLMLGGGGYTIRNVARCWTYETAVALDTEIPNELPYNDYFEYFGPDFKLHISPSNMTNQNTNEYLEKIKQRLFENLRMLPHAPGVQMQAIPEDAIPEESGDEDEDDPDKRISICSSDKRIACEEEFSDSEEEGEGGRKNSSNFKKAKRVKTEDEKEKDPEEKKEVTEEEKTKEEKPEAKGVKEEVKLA

Histone deacetylase 3/Nuclear receptor corepressor 2 (HDAC3/NCoR2), sequence (O15379 whole entry, the tested form may be a part): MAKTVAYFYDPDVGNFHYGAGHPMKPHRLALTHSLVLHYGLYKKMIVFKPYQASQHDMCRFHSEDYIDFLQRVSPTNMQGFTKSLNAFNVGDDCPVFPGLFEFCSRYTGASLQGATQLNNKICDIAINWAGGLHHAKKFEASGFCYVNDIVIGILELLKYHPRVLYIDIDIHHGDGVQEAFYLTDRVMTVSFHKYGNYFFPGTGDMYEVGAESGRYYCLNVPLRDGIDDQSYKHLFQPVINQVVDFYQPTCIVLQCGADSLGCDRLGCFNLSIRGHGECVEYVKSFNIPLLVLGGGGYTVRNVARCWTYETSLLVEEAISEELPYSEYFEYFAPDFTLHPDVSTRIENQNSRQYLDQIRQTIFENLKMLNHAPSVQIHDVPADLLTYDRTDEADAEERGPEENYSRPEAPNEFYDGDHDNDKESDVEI
Histone deacetylase 3/Nuclear receptor corepressor 2 (HDAC3/NCoR2), sequence (Q9Y618 whole entry, further chain, the tested form may be a part): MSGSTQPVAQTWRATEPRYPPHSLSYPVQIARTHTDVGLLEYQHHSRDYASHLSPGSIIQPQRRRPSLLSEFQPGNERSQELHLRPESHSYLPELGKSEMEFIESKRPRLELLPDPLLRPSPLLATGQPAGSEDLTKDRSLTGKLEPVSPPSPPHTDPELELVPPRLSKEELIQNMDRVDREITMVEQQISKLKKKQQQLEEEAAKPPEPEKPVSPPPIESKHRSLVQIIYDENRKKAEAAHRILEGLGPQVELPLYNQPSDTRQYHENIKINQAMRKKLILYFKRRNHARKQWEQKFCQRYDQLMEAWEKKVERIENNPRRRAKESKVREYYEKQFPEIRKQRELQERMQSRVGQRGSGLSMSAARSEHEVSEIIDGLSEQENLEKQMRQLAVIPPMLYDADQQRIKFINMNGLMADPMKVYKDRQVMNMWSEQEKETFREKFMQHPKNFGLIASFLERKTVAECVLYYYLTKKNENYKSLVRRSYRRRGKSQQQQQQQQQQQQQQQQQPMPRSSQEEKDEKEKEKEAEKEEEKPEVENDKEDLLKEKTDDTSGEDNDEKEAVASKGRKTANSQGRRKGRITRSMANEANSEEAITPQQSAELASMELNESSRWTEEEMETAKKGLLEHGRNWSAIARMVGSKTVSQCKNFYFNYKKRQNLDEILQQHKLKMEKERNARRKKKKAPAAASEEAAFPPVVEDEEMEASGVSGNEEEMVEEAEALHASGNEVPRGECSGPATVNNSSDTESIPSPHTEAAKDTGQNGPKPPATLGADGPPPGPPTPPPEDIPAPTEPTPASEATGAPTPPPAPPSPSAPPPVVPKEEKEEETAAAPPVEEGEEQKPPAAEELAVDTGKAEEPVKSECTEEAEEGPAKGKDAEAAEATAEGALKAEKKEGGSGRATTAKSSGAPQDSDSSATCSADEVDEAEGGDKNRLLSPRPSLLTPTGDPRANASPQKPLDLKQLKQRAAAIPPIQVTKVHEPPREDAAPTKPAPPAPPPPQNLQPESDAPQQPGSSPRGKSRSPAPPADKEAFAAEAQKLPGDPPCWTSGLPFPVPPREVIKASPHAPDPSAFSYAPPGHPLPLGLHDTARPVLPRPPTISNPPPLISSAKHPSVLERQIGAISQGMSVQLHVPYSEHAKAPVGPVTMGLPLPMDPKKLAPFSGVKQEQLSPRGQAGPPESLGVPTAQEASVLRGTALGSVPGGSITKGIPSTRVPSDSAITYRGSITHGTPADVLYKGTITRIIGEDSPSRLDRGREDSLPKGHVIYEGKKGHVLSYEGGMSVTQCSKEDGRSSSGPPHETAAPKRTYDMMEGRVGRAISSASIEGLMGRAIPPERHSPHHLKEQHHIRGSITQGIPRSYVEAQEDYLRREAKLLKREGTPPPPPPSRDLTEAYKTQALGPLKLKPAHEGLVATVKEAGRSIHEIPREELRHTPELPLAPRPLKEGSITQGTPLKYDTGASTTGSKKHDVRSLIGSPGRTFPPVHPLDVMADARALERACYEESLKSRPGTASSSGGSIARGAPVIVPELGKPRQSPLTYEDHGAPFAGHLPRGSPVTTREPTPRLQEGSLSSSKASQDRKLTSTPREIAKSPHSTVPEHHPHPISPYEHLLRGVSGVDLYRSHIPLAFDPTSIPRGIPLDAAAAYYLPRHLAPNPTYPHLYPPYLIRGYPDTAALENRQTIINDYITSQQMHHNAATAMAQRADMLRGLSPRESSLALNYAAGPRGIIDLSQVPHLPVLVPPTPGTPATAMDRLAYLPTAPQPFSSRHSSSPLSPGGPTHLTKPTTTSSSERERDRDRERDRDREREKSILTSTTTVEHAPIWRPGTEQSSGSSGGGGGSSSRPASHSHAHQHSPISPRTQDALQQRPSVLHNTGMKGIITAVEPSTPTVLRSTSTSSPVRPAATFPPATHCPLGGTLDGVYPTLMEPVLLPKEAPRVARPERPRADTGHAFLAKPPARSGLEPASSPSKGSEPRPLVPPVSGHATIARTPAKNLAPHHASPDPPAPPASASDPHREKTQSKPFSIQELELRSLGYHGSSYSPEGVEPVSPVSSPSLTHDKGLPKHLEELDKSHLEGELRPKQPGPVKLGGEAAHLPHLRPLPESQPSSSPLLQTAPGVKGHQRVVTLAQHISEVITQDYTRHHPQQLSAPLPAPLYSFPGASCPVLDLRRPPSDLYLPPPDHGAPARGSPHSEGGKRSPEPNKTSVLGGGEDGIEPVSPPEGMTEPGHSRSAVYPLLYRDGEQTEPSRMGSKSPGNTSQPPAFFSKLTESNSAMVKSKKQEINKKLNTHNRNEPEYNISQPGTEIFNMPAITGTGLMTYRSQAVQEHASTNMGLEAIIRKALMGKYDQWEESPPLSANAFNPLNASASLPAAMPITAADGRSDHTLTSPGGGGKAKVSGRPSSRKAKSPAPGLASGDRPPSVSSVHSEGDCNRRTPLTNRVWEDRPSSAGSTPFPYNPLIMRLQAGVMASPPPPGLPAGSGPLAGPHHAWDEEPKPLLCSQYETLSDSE
Histone deacetylase 2, sequence (Q92769 whole entry): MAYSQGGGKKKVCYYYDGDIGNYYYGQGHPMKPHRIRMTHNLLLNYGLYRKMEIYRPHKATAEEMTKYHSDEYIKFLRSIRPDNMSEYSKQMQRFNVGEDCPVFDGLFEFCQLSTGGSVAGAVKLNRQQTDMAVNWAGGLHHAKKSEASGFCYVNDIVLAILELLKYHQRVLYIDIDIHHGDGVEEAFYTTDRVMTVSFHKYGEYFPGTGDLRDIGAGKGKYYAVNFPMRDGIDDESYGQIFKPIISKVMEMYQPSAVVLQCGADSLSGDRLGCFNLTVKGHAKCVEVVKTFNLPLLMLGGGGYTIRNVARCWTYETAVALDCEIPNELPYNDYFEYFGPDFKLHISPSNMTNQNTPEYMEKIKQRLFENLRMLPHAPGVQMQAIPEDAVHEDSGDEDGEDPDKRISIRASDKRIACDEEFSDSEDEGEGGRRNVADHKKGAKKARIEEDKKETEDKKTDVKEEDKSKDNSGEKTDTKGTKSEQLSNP
T1 sequence (P43490 whole entry): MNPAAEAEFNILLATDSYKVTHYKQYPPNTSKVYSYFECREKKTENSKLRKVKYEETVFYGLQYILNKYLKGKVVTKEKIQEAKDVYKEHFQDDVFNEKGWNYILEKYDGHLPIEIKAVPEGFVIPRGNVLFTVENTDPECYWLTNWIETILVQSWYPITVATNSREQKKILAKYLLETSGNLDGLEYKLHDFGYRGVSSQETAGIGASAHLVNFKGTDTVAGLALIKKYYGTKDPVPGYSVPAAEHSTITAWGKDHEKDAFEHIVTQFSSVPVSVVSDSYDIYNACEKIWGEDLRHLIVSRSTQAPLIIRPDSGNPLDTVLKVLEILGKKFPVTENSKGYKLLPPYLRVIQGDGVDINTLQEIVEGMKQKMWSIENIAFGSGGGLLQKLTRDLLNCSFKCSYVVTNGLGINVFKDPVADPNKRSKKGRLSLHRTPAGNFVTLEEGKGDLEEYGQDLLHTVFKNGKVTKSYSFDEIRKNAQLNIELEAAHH

SMILES: CCCNNC(=O)c1ccc(CNC(=O)/C=C/c2ccccc2)cc1
GI50 (MV4-11): 16 nM
CC50 (NB-4): > 100000 nM
CC50 (HL-60 [2]): 614 nM
CC50 [3]: > 100000 nM
CC50 [4]: > 100000 nM
CC50 (HL-60 [5]): 67.8 nM
GI50 (HL-60 [6]): 121 nM
CC50 (Kasumi 1): > 100000 nM

SMILES: CCCNNC(=O)c1ccc(CNC(=O)c2cc3ccccc3o2)cc1
IC50 [7]: 0.43 nM

SMILES: CCCNNC(=O)c1ccc(CNC(=O)c2cc3ccccc3[nH]2)cc1
GI50 (MV4-11): 37.3 nM
CC50 (NB-4): > 100000 nM
CC50 [3]: > 100000 nM
CC50 [4]: > 100000 nM
GI50 (HL-60 [6]): 69.6 nM
CC50 (Kasumi 1): 284 nM

SMILES: CCCNNC(=O)c1ccc(NC(=O)CCCCCCCNC(=O)/C=C/c2cccnc2)cc1
IC50 (MV4-11): 174 nM
IC50 [8]: > 20000 nM

SMILES: CCCNNC(=O)CCCCCCNC(=O)/C=C/c1cccnc1
IC50 (MV4-11): 434 nM
IC50 [8]: 261 nM

SMILES: CCCNNC(=O)c1ccc(CNC(=O)CCCCCCCNC(=O)/C=C/c2cccnc2)cc1
IC50 (MV4-11): 2190 nM
IC50 [8]: 489 nM

SMILES: CCCNNC(=O)c1ccc(CNC(=O)CCCCCCNC(=O)/C=C/c2cccnc2)cc1
IC50 (MV4-11): 2240 nM
IC50 [8]: 261 nM

SMILES: CCCNNC(=O)c1ccc(NC(=O)CCCCCCNC(=O)/C=C/c2cccnc2)cc1
IC50 (MV4-11): 52.4 nM
IC50 [8]: > 20000 nM

SMILES: CCCNNC(=O)CCNC(=O)/C=C/c1cccnc1
IC50 (Histone deacetylase 2): > 10000 nM
IC50 (MV4-11): > 50000 nM
IC50 [8]: > 20000 nM

SMILES: CCCNNC(=O)c1ccc(CNC(=O)/C=C/c2ccncc2)cc1
IC50 (MV4-11): 67.7 nM
IC50 [8]: > 20000 nM

SMILES: CCCNNC(=O)c1ccc(CNC(=O)/C=C/c2ccccn2)cc1
IC50 (MV4-11): 85.2 nM
IC50 [8]: > 20000 nM

SMILES: CCCNNC(=O)CCCCCCCNC(=O)/C=C/c1cccnc1
IC50 (MV4-11): 667 nM
IC50 [8]: > 20000 nM

SMILES: O=C(CCCCCCC(=O)Nc1ccccc1)NO [VORINOSTAT]
IC50 [8]: > 20000 nM

Results, then the compound that gave them:

IC50 [1]: 5 nM
SMILES: Cc1ncsc1C(=O)N1CCC(CCCCNC(=O)c2cc3cnccc3[nH]2)CC1

IC50 [7]: 2.01 nM
SMILES: CCCNNC(=O)c1ccc(CNC(=O)c2cc3cnccc3s2)cc1

IC50 (Histone deacetylase 2): > 20000 nM
IC50 (MV4-11): > 50000 nM
IC50 [7]: > 20000 nM
IC50 [8]: 6870 nM
IC50 (Histone deacetylase 1): > 20000 nM
SMILES: COC(=O)c1ccc(CNC(=O)c2cc3cnccc3[nH]2)cc1

IC50 (MV4-11): 901 nM
IC50 [8]: > 20000 nM
SMILES: CCCNNC(=O)CCCCNC(=O)/C=C/c1cccnc1

IC50 (Histone deacetylase 2): 19.4 nM
IC50 [7]: 1.82 nM
IC50 (Histone deacetylase 1): 5.5 nM
SMILES: CCCNNC(=O)c1ccc(CNC(=O)c2cc3cnccc3o2)cc1

IC50 (MV4-11): 87.7 nM
SMILES: CCCNNC(=O)CCCCCCNC(=O)c1cc2cnccc2[nH]1

IC50 (Histone deacetylase 2): > 10000 nM
IC50 (MV4-11): 15.3 nM
IC50 [7]: > 10000 nM
GI50 (HL-60 [6]): 12.1 nM
IC50 (Histone deacetylase 1): > 10000 nM
SMILES: O=C(/C=C/c1cccnc1)NCCCCC1CCN(C(=O)c2ccccc2)CC1 [DAPORINAD]

Source: ChEMBL document CHEMBL5505964, “HDAC/NAMPT dual inhibitors overcome initial drug-resistance in p53-null leukemia cells” (Eur J Med Chem, 2024)
